Assay results from PubChem BioAssay AID2060615 (Molecular Pharmacology Branch, DTP, NCI, 2025).

Tested on: 496974-208-R-J2-PDC complex spheroids, growth % test/control
Experiment: Anticancer human tumor 496974-208-R-J2-PDC patient-derived pancreatic carcinoma cell line growth inhibition [CLK]
Conditions: for IC50: curve of first compound; for viability, T/C: stronger effect = lower value; active = viability on the fitted dose curve at most 10% of control; inactive = the rest
How it was run: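 Multi-cell-type spheroids combined patient-derived tumor cells with HUVEC endothelial cells and human mesenchymal stem cells. Paired agents were dosed in half-log steps down from about clinical Cmax, or from 10 microM where Cmax was unknown.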

[1] = second compound 0.0316 µM, first compound 0.0316 µM
[2] = second compound 0.0316 µM, first compound 0.1 µM
[3] = second compound 0.0316 µM, first compound 0.316 µM
[4] = second compound 0.0316 µM, first compound 1 µM
[5] = second compound 0.0316 µM, first compound 3.16 µM
[6] = second compound 0.0316 µM, first compound 10 µM
[7] = second compound 0.1 µM, first compound 0.0316 µM
[8] = second compound 0.1 µM, first compound 0.1 µM
[9] = second compound 0.1 µM, first compound 0.316 µM
[10] = second compound 0.1 µM, first compound 1 µM
[11] = second compound 0.1 µM, first compound 3.16 µM
[12] = second compound 0.1 µM, first compound 10 µM
[13] = second compound 0.316 µM, first compound 0.0316 µM
[14] = second compound 0.316 µM, first compound 0.1 µM
[15] = second compound 0.316 µM, first compound 0.316 µM
[16] = second compound 0.316 µM, first compound 1 µM
[17] = second compound 0.316 µM, first compound 3.16 µM
[18] = second compound 0.316 µM, first compound 10 µM
[19] = second compound 1 µM, first compound 0.0316 µM
[20] = second compound 1 µM, first compound 0.1 µM
[21] = second compound 1 µM, first compound 0.316 µM
[22] = second compound 1 µM, first compound 1 µM
[23] = second compound 1 µM, first compound 3.16 µM
[24] = second compound 1 µM, first compound 10 µM
[25] = second compound 3.16 µM, first compound 0.0316 µM
[26] = second compound 3.16 µM, first compound 0.1 µM
[27] = second compound 3.16 µM, first compound 0.316 µM
[28] = second compound 3.16 µM, first compound 1 µM
[29] = second compound 3.16 µM, first compound 3.16 µM
[30] = second compound 3.16 µM, first compound 10 µM
[31] = second compound 10 µM, first compound 0.0316 µM
[32] = second compound 10 µM, first compound 0.1 µM
[33] = second compound 10 µM, first compound 0.316 µM
[34] = second compound 10 µM, first compound 1 µM
[35] = second compound 10 µM, first compound 3.16 µM
[36] = second compound 10 µM, first compound 10 µM
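Note: spheroids exposed to the drugs for 7 days before readout.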
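Throughout, for viability, T/C: 100% = DMSO vehicle control wells.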

C#Cc1c(F)ccc2cc(O)cc(-c3ncc4c(N5CC6CCC(C5)N6)nc(OCC56CCCN5CC(F)C6)nc4c3F)c12 (stereo not given) + CNC(=O)c1ccc(Nc2nc(OC3CCCC3)c3c(-c4ccc5nc(C)oc5c4)c[nH]c3n2)c(OC)c1
204 nM: IC50 (second compound 0.0316 µM)
< 31.6 nM: IC50 (second compound 0.316 µM) | IC50 (second compound 1 µM) | IC50 (second compound 3.16 µM) | IC50 (second compound 10 µM)
inactive: viability, T/C [1] 62.4% | viability, T/C [2] 56.8% | viability, T/C [3] 46.1% | viability, T/C [4] 42.2% | viability, T/C [5] 42.9% | viability, T/C [6] 41% | viability, T/C [7] 57.7% | viability, T/C [8] 46.7% | viability, T/C [9] 35% | viability, T/C [10] 37.2% | viability, T/C [11] 34.6% | viability, T/C [12] 43.1% | viability, T/C [13] 45.2% | viability, T/C [14] 40.2% | viability, T/C [15] 37.2% | viability, T/C [16] 33% | viability, T/C [17] 33.5% | viability, T/C [18] 31% | viability, T/C [19] 37.8% | viability, T/C [20] 32.5% | viability, T/C [21] 31.2% | viability, T/C [22] 28.1% | viability, T/C [23] 31.3% | viability, T/C [24] 28.4% | viability, T/C [25] 33.5% | viability, T/C [26] 30.4% | viability, T/C [27] 27.2% | viability, T/C [28] 25.8% | viability, T/C [29] 27.6% | viability, T/C [30] 23.8% | viability, T/C [31] 30.1% | viability, T/C [32] 27.9% | viability, T/C [33] 27% | viability, T/C [34] 22.8% | viability, T/C [35] 23.5% | viability, T/C [36] 21.2%
33.5 nM: IC50 (second compound 0.1 µM)

C=C(F)C(=O)N1CCN(c2nc(OCC3CCCN3C)nc3c2CCN(c2cccc4cccc(Cl)c24)C3)CC1CC#N (stereo not given) + CNC(=O)c1ccc(Nc2nc(OC3CCCC3)c3c(-c4ccc5nc(C)oc5c4)c[nH]c3n2)c(OC)c1
4520 nM: IC50 (second compound 0.1 µM)
5460 nM: IC50 (second compound 0.0316 µM)
2320 nM: IC50 (second compound 3.16 µM)
inactive: viability, T/C [1] 89% | viability, T/C [2] 91.7% | viability, T/C [3] 90.5% | viability, T/C [4] 90.6% | viability, T/C [5] 91.4% | viability, T/C [7] 79.2% | viability, T/C [8] 73.6% | viability, T/C [9] 72.9% | viability, T/C [10] 76.1% | viability, T/C [11] 71.7% | viability, T/C [13] 80.4% | viability, T/C [14] 72.9% | viability, T/C [15] 73.5% | viability, T/C [16] 76.2% | viability, T/C [17] 63.8% | viability, T/C [19] 69.5% | viability, T/C [20] 68.5% | viability, T/C [21] 64.7% | viability, T/C [22] 64.8% | viability, T/C [23] 47.9% | viability, T/C [25] 59.8% | viability, T/C [26] 59.4% | viability, T/C [27] 55.8% | viability, T/C [28] 56.9% | viability, T/C [29] 47.5% | viability, T/C [31] 56.4% | viability, T/C [32] 52.2% | viability, T/C [33] 48.4% | viability, T/C [34] 45.4% | viability, T/C [35] 39.8%
2740 nM: IC50 (second compound 1 µM)
active: viability, T/C [6] 4.85% | viability, T/C [12] 1.82% | viability, T/C [18] 5.04% | viability, T/C [24] 0.69% | viability, T/C [30] 1.05% | viability, T/C [36] 1.59%
4150 nM: IC50 (second compound 0.316 µM)
549 nM: IC50 (second compound 10 µM)

C=CC(=O)N1CCN(c2nc(=O)n(-c3c(C)ccnc3C(C)C)c3nc(-c4c(O)cccc4F)c(F)cc23)C(C)C1 (stereo not given) + CNC(=O)c1ccc(Nc2nc(OC3CCCC3)c3c(-c4ccc5nc(C)oc5c4)c[nH]c3n2)c(OC)c1
7280 nM: IC50 (second compound 3.16 µM)
> 10000 nM: IC50 (second compound 0.0316 µM) | IC50 (second compound 0.1 µM) | IC50 (second compound 0.316 µM) | IC50 (second compound 1 µM)
inactive: viability, T/C [1] 106% | viability, T/C [2] 95.9% | viability, T/C [3] 93.6% | viability, T/C [4] 107% | viability, T/C [5] 102% | viability, T/C [6] 85.7% | viability, T/C [7] 71.5% | viability, T/C [8] 67.4% | viability, T/C [9] 78.5% | viability, T/C [10] 77.1% | viability, T/C [11] 73% | viability, T/C [12] 64.8% | viability, T/C [13] 78.8% | viability, T/C [14] 76.5% | viability, T/C [15] 71% | viability, T/C [16] 76.2% | viability, T/C [17] 71.1% | viability, T/C [18] 53.3% | viability, T/C [19] 63.2% | viability, T/C [20] 62.8% | viability, T/C [21] 67.7% | viability, T/C [22] 68.8% | viability, T/C [23] 66% | viability, T/C [24] 49% | viability, T/C [25] 51.6% | viability, T/C [26] 62.4% | viability, T/C [27] 52.3% | viability, T/C [28] 58.5% | viability, T/C [29] 55% | viability, T/C [30] 42.7% | viability, T/C [31] 62% | viability, T/C [32] 51.5% | viability, T/C [33] 51.6% | viability, T/C [34] 54.3% | viability, T/C [35] 55.7% | viability, T/C [36] 41%
4700 nM: IC50 (second compound 10 µM)

CCCS(=O)(=O)Nc1ccc(F)c(C(=O)c2c[nH]c3ncc(-c4ccc(Cl)cc4)cc23)c1F + CNC(=O)c1ccc(Nc2nc(OC3CCCC3)c3c(-c4ccc5nc(C)oc5c4)c[nH]c3n2)c(OC)c1
6360 nM: IC50 (second compound 0.1 µM)
6390 nM: IC50 (second compound 0.0316 µM)
inactive: viability, T/C [1] 94.7% | viability, T/C [2] 73.7% | viability, T/C [3] 115% | viability, T/C [4] 100% | viability, T/C [5] 91% | viability, T/C [6] 23.6% | viability, T/C [7] 71.5% | viability, T/C [8] 47.6% | viability, T/C [9] 78.6% | viability, T/C [10] 86% | viability, T/C [11] 78.2% | viability, T/C [12] 35.6% | viability, T/C [13] 70.7% | viability, T/C [14] 45.4% | viability, T/C [15] 76.3% | viability, T/C [16] 71.2% | viability, T/C [17] 78.2% | viability, T/C [18] 29.6% | viability, T/C [19] 51.2% | viability, T/C [20] 44.1% | viability, T/C [21] 64.5% | viability, T/C [22] 69.5% | viability, T/C [23] 66.2% | viability, T/C [24] 22.4% | viability, T/C [25] 52% | viability, T/C [26] 26% | viability, T/C [27] 61.9% | viability, T/C [28] 63.3% | viability, T/C [29] 53.1% | viability, T/C [30] 19.8% | viability, T/C [31] 50.7% | viability, T/C [32] 30.5% | viability, T/C [33] 58.6% | viability, T/C [34] 61.7% | viability, T/C [35] 64% | viability, T/C [36] 27.2%
68.1 nM: IC50 (second compound 3.16 µM)
> 10000 nM: IC50 (second compound 0.316 µM)
2590 nM: IC50 (second compound 1 µM)
< 31.6 nM: IC50 (second compound 10 µM)

COC1C=CCC(C)C(C)S(=O)(=O)NC(=O)c2ccc3c(c2)N(CC2CCC21)CC1(CCCc2cc(Cl)ccc21)CO3 (stereo not given) + CNC(=O)c1ccc(Nc2nc(OC3CCCC3)c3c(-c4ccc5nc(C)oc5c4)c[nH]c3n2)c(OC)c1
inactive: viability, T/C [1] 103% | viability, T/C [2] 60.8% | viability, T/C [3] 87.7% | viability, T/C [4] 71.9% | viability, T/C [5] 70% | viability, T/C [6] 26.3% | viability, T/C [7] 76.7% | viability, T/C [8] 55.6% | viability, T/C [9] 69.1% | viability, T/C [10] 60.2% | viability, T/C [11] 53.1% | viability, T/C [12] 29.7% | viability, T/C [13] 50.7% | viability, T/C [14] 57.1% | viability, T/C [15] 46.9% | viability, T/C [16] 41.3% | viability, T/C [17] 38.1% | viability, T/C [18] 49.9% | viability, T/C [19] 59.7% | viability, T/C [20] 36.7% | viability, T/C [21] 39.8% | viability, T/C [22] 34.4% | viability, T/C [23] 38% | viability, T/C [24] 30.6% | viability, T/C [25] 53.5% | viability, T/C [26] 36.3% | viability, T/C [27] 35% | viability, T/C [28] 33% | viability, T/C [29] 33.3% | viability, T/C [30] 29.7% | viability, T/C [31] 53.9% | viability, T/C [32] 36.8% | viability, T/C [33] 34.2% | viability, T/C [34] 31.6% | viability, T/C [35] 30.1% | viability, T/C [36] 24.1%
40.4 nM: IC50 (second compound 3.16 µM)
52.1 nM: IC50 (second compound 1 µM)
40.9 nM: IC50 (second compound 10 µM)
3490 nM: IC50 (second compound 0.1 µM)
190 nM: IC50 (second compound 0.316 µM)
5110 nM: IC50 (second compound 0.0316 µM)
